Where “and” joins values, the source holds several entries; their conditions need not be identical. Equal values may be shown once.
Experiments:
[1] = tested on: Salmonella typhimurium TA98; assay: Bacterial reverse mutation test (Ames), strain TA98; type: cell-based; conditions: for Revertant Colonies (With S9), plates A, B, C / Revertant Colonies (Without S9), plates A, B, C: individual plates
Experimental: (§1) The reverse mutation test was performed to determine the potential of BondLynx and/or its metabolites to induce reverse mutations at the histidine locus of Salmonella typhimurium.[26],[27] The test employs strains of Salmonella typhimurium carrying mutations in the genes involved in histidine production, such that they are only able to grow in histidine supplemented culture media. Upon exposure to mutagenic materials, these mutations may be reversed, thereby restoring the ability to grow in histidine-free media. When grown in the presence of the test compound on media with a small amount of histidine, tester strains grow briefly to allow the opportunity for mutation, followed by proliferation of revertant colonies upon depletion of the provided histidine. Thus, the number of revertant colonies following incubation is indicative of the ability of the test compound to induce mutations.
(§2) Tests were performed on two strains of the bacteria (TA98 and TA100) in the absence and presence of an exogenous mammalian metabolic activation system (5% v/v S9). Positive controls and BondLynx were suspended in dimethyl sulfoxide (DMSO) for testing, and DMSO served as the vehicle control. Positive controls consisted of 2-nitrofluorene (10 μg/plate) for the TA98 strain without S9, methyl mesylate (650 μg/plate) for the TA100 strain without S9, and 2-aminoanthracene for both strains with S9 (1 μg/plate for TA98 and 5 μg/plate for TA100). Eight concentrations of BondLynx (1.7, 5.4, 17, 52, 164, 512, 1600 and 5000 μg/plate) were tested in triplicate. The vehicle control was tested in triplicate and the positive controls were tested singular.
(§3) Test solutions were prepared by pre-incubating .1 mL fresh bacterial culture (10^9 cells/mL), .1 mL of a BondLynx dilution or control solution, and .5 mL of S9 mix or .1 M phosphate buffer for 30 min before adding to 3 mL of molten (45 ± 2°C) top agar. After mixing in a vortex, agar solutions were poured onto selective agar plates. Upon solidification, the prepared plates were inverted and incubated at 37.0 ± 1.0°C for 48 ± 4 h. Following incubation, revertant colonies were counted with a Sorcerer Colony Counter. The condition of the bacterial background lawn was evaluated macroscopically and/or microscopically using a dissecting microscope when considered necessary.

[2] = tested on: Salmonella typhimurium TA100; assay: Bacterial reverse mutation test (Ames), strain TA100; type: cell-based; conditions: for Revertant Colonies (With S9), plates A, B, C / Revertant Colonies (Without S9), plates A, B, C: individual plates
Experimental: as §1, §2, §3

[3] = TA98, without S9, 1600 μg/plate
[4] = TA98, without S9, 5000 μg/plate
[5] = absence of S9, higher concentrations
[6] = presence of S9, any tested dose level
[7] = TA100, without S9, 1.7 μg/plate
[8] = TA100, without S9, 5.4 μg/plate
[9] = TA100, without S9, 164 μg/plate
[10] = TA100, without S9, 512 μg/plate
[11] = TA100, without S9, 1600 μg/plate
[12] = TA100, without S9, 5000 μg/plate

For `FC(F)(F)C1(c2ccc(C(c3ccc(C4(C(F)(F)F)N=N4)cc3)(C(F)(F)F)C(F)(F)F)cc2)N=N1` [BondLynx, 2,2-bis-[4-[3-(trifluoromethyl)-3H-diazirin-3-yl]phenyl]hexafluoropropane], the Mutagenicity conclusion ([1]; TA98, absence and presence of S9, 1.7 to 5000 μg/plate) was “non-mutagenic”, the “Total number of revertants relative to concurrent vehicle control” value ([1]; TA98, vs DMSO vehicle control) was “less than three times” and the “Revertant Colonies (With S9), Mean ± SD” value ([1]; TA98, with S9, 1.7 μg/plate) was 20 ± 9. For the same compound, the “Revertant Colonies (With S9), plates A, B, C” value ([1]; TA98, with S9, 1.7 μg/plate) was 10 and 23 and 26, the “Revertant Colonies (With S9), Mean ± SD” value ([1]; TA98, with S9, 5.4 μg/plate) was 13 ± 8 and the “Revertant Colonies (With S9), plates A, B, C” value ([1]; TA98, with S9, 5.4 μg/plate) was 4 and 15 and 19. The “Revertant Colonies (With S9), Mean ± SD” value ([1]; TA98, with S9, 1600 μg/plate) was 17 ± 8, the “Revertant Colonies (With S9), plates A, B, C” value ([1]; TA98, with S9, 1600 μg/plate) was 26 and 16 and 10 and the “Revertant Colonies (With S9), Mean ± SD” value ([1]; TA98, with S9, 5000 μg/plate) was 13 ± 5. The “Revertant Colonies (With S9), plates A, B, C” value ([1]; TA98, with S9, 5000 μg/plate) was 8 and 16 (2×), the “Revertant Colonies (Without S9), Mean ± SD” value ([1]; TA98, without S9, 1.7 μg/plate) was 9 ± 2 and the “Revertant Colonies (Without S9), plates A, B, C” value ([1]; TA98, without S9, 1.7 μg/plate) was 8 and 11 and 7. The “Revertant Colonies (Without S9), Mean ± SD” value ([1]; TA98, without S9, 5.4 μg/plate) was 8 ± 4, the “Revertant Colonies (Without S9), plates A, B, C” value ([1]; TA98, without S9, 5.4 μg/plate) was 4 and 12 and 8 and the “Revertant Colonies (Without S9), Mean ± SD” value ([1]; TA98, without S9, 17 μg/plate) was 13 ± 4. The “Revertant Colonies (Without S9), plates A, B, C” value ([1]; TA98, without S9, 17 μg/plate) was 15 and 11 and 12, the “Revertant Colonies (Without S9), Mean ± SD” value [1, 3] was 9 ± 5 and the “Revertant Colonies (Without S9), plates A, B, C” value [1, 3] was 7 and 15 and 5. The “Revertant Colonies (Without S9), Mean ± SD” value [1, 4] was 14 ± 3, the “Revertant Colonies (Without S9), plates A, B, C” value [1, 4] was 18 and 12 (2×) and the “Cytotoxicity (condition of microcolony lawn)” value (shortened to “Cytotoxicity”) [1, 5] was “slight thinning of the microcolony lawn”. For the same compound, the “Cytotoxicity” value [1, 6] was “toxicity was not observed”, the Mutagenicity conclusion ([2]; TA100, absence and presence of S9, 1.7 to 5000 μg/plate) was “non-mutagenic” and the “Total number of revertants relative to concurrent vehicle control” value ([2]; TA100, vs DMSO vehicle control) was “less than two times”. For the same compound, the “Revertant Colonies (With S9), Mean ± SD” value ([2]; TA100, with S9, 1.7 μg/plate) was 95 ± 3, the “Revertant Colonies (With S9), plates A, B, C” value ([2]; TA100, with S9, 1.7 μg/plate) was 93 and 94 and 98 and the “Revertant Colonies (With S9), Mean ± SD” value ([2]; TA100, with S9, 5.4 μg/plate) was 92 ± 17. For the same compound, the “Revertant Colonies (With S9), plates A, B, C” value ([2]; TA100, with S9, 5.4 μg/plate) was 98 and 73 and 105, the “Revertant Colonies (With S9), Mean ± SD” value ([2]; TA100, with S9, 17 μg/plate) was 89 ± 15 and the “Revertant Colonies (With S9), plates A, B, C” value ([2]; TA100, with S9, 17 μg/plate) was 72 and 98 (2×). The “Revertant Colonies (With S9), Mean ± SD” value ([2]; TA100, with S9, 52 μg/plate) was 100 ± 16, the “Revertant Colonies (With S9), plates A, B, C” value ([2]; TA100, with S9, 52 μg/plate) was 118 and 93 and 88 and the “Revertant Colonies (With S9), Mean ± SD” value ([2]; TA100, with S9, 164 μg/plate) was 96 ± 16. For the same compound, the “Revertant Colonies (With S9), plates A, B, C” value ([2]; TA100, with S9, 164 μg/plate) was 83 and 113 and 91, the “Revertant Colonies (With S9), Mean ± SD” value ([2]; TA100, with S9, 512 μg/plate) was 99 ± 16 and the “Revertant Colonies (With S9), plates A, B, C” value ([2]; TA100, with S9, 512 μg/plate) was 98 and 84 and 116. The “Revertant Colonies (With S9), Mean ± SD” value ([2]; TA100, with S9, 1600 μg/plate) was 88 ± 8, the “Revertant Colonies (With S9), plates A, B, C” value ([2]; TA100, with S9, 1600 μg/plate) was 84 and 82 and 97 and the “Revertant Colonies (With S9), Mean ± SD” value ([2]; TA100, with S9, 5000 μg/plate) was 96 ± 10. For the same compound, the “Revertant Colonies (With S9), plates A, B, C” value ([2]; TA100, with S9, 5000 μg/plate) was 107 and 94 and 88, the “Revertant Colonies (Without S9), Mean ± SD” value [2, 7] was 88 ± 3 and the “Revertant Colonies (Without S9), plates A, B, C” value [2, 7] was 91 and 86 (2×). The “Revertant Colonies (Without S9), Mean ± SD” value [2, 8] was 112 ± 15, the “Revertant Colonies (Without S9), plates A, B, C” value [2, 8] was 127 and 110 and 98 and the “Revertant Colonies (Without S9), Mean ± SD” value ([2]; TA100, without S9, 17 μg/plate) was 107 ± 7. For the same compound, the “Revertant Colonies (Without S9), plates A, B, C” value ([2]; TA100, without S9, 17 μg/plate) was 114 and 101 and 105, the “Revertant Colonies (Without S9), Mean ± SD” value ([2]; TA100, without S9, 52 μg/plate) was 102 ± 22 and the “Revertant Colonies (Without S9), plates A, B, C” value ([2]; TA100, without S9, 52 μg/plate) was 105 and 122 and 78. The “Revertant Colonies (Without S9), Mean ± SD” value [2, 9] was 100 ± 4, the “Revertant Colonies (Without S9), plates A, B, C” value [2, 9] was 95 and 103 and 102 and the “Revertant Colonies (Without S9), Mean ± SD” value [2, 10] was 91 ± 17. The “Revertant Colonies (Without S9), plates A, B, C” value [2, 10] was 84 and 110 and 79, the “Revertant Colonies (Without S9), Mean ± SD” value [2, 11] was 91 ± 12 and the “Revertant Colonies (Without S9), plates A, B, C” value [2, 11] was 82 and 86 and 105. The “Revertant Colonies (Without S9), Mean ± SD” value [2, 12] was 102 ± 13, the “Revertant Colonies (Without S9), plates A, B, C” value [2, 12] was 91 and 116 and 99 and the “Cytotoxicity” value [2, 5] was “slight thinning of the microcolony lawn”. The “Cytotoxicity” value [2, 6] was “toxicity was not observed”.

Reference: article PMC10916352, “Safety Evaluation of a Prototypical Diazirine-Based Covalent Crosslinker and Molecular Adhesive” (International Journal of Toxicology, 2023)
